Assay results as given in patent publication US12187715B2, “Small molecule activators of Tie-2” (EyePoint Pharmaceuticals, Inc., priority 2019, dated 2025).
Where “and” joins values, the source holds several entries; their conditions need not be identical. Equal entries are not always repeated.

What was measured:
[1] = Physical stability (appearance) of the aqueous solutions standing at room temperature; type: physicochemical; settings: for Gelation or precipitation of undiluted solution: throughout the 4-week study period (Compound 2: over 5 weeks); for Appearance of solution: undiluted
[2] = HPLC purity analyses of aqueous solutions over time at room temperature (chemical stability); type: physicochemical
[3] = 50% diluted samples, room temperature, T = 4 weeks
[4] = undiluted samples, T = 0 (dry sample)
[5] = undiluted samples, room temperature, T = 5 weeks
[6] = undiluted samples, room temperature, T = 1 day

| Time until precipitation was observed ([1]; 50% diluted solution) | Gelation or precipitation of undiluted solution [1] | Time until solution started to show haziness ([1]; undiluted solution) | Appearance of solution ([1]; T = 0) | Appearance of solution ([1]; T = 2 week) | Appearance of solution ([1]; T = 3 week) | Appearance of solution ([1]; T = 4 week) | Appearance of solution ([1]; T = 1 day) | Appearance of solution ([1]; T = 2 day) | Appearance of solution ([1]; T = 3 day) | Appearance of solution ([1]; T = 4 day) | Appearance of solution ([1]; T = 5 day) | Appearance of solution ([1]; T = 6 day) | HPLC purity [2, 3] | HPLC purity ([2]; 50% diluted samples, room temperature, T = 6 weeks (reanalysis)) | HPLC purity [2, 4] | HPLC purity [2, 5] | HPLC purity ([2]; undiluted samples, room temperature, T = 7 weeks (reanalysis)) | HPLC purity [2, 6] | SMILES |
| --- | --- | --- | --- | --- | --- | --- | --- | --- | --- | --- | --- | --- | --- | --- | --- | --- | --- | --- | --- |
| about 2.5 months | gradually developed a precipitate | 3 days | Clear | Precipitate | Precipitate | Precipitate | Clear | Clear | Slightly hazy | Small precipitate | Small precipitate | Precipitate | 82% | 96.9% and 96.95% | 99.59% | 88.99% | 93.9% and 93.93% | 98.7% | COC(=O)N(C)[C@@H](Cc1ccccc1)C(=O)N[C@@H](Cc1ccc(NS(=O)(=O)[O-])cc1)c1csc(-c2cccs2)n1.[Na+] [Compound 2, sodium (4-{(S)-2-{(S)-2-[(methoxycarbonyl)(methyl)amino]-3-phenylpropanamido}-2-[2-(thiophen-2-yl)thiazol-4-yl]ethyl}phenyl)sulfamate] |
| – | No gelation or precipitation | – | Clear | Clear | Clear | Clear | Clear | Clear | Clear | Clear | Clear | Clear | 97.69% | – | 98.72% | 96.53% | – | 98.2% | COC(=O)N(C)[C@@H](Cc1ccccc1)C(=O)N(C)[C@@H](Cc1ccc(NS(=O)(=O)[O-])cc1)c1csc(-c2cccs2)n1.[Na+] [Compound 4, sodium (4-{(S)-2-{(S)-2-[(methoxycarbonyl)(methyl)amino]-N-methyl-3-phenylpropanamido}-2-[2-(thiophen-2-yl)thiazol-4-yl]ethyl}phenyl)sulfamate] |
